According to patent US8969554B2, “6-acyl-1,2,4-triazine-3,5-dione derivative and herbicides” (Kumiai Chemical Industry Co., Ltd., priority 2010, dated 2015):

Columns and labels:
foxtail = experiment: Herbicidal activity by field soil treatment (Test example 2); format: in vivo; details: 1000 g effective component per hectare, day 21 after the treatment;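 note: index 0 to 10 in 10% steps of herbicidal effect with 10 meaning complete death and 0 below 10%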
Summary of the method: (§1)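 Seeds were sown in field soil in 80 cm^2 pots and covered with soil. A water-diluted wettable powder was then sprayed onto the soil surface at 1000 liters per hectare, delivering 1000 g active ingredient per hectare. Plants grew in a greenhouse, and herbicidal effect was scored against set criteria 21 days after treatment.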

Setaria viridis = experiment: Herbicidal activity by field foliage treatment (Test example 3); format: in vivo; details: 1000 g effective component per hectare, day 14 after the treatment;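 note: index 0 to 10 in 10% steps of herbicidal effect with 10 meaning complete death and 0 below 10%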
Summary of the method: (§2)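 Potted field-soil plants grown 2 weeks in a greenhouse were sprayed over the whole foliage with diluted wettable powder at 1000 L/ha, delivering 1000 g active ingredient per hectare. Herbicidal effect scored by visual criteria 14 days after treatment.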

Indian millet [1] = experiment: as above; format: in vivo; parameters: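 index 0 to 10 in 10% steps of herbicidal effect with 10 meaning complete death and 0 below 10%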; details: 1000 g effective component per hectare, day 14 after the treatment
Summary of the method: (§3)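 Plants were grown from seed in field soil in a greenhouse for 2 weeks, then sprayed over the whole foliage with a water-diluted wettable powder at 1000 L/ha spray volume, delivering 1000 g active ingredient per hectare. Herbicidal effect was scored on day 14 after treatment.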

A. retroflexus [2] = experiment: as above; format: in vivo; parameters: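 index 0 to 10 in 10% steps of herbicidal effect with 10 meaning complete death and 0 below 10%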; details: 1000 g effective component per hectare, day 14 after the treatment
Summary of the method: as §3

Echinochloa crus-galli [3] = experiment: as above; format: in vivo; parameters: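 index 0 to 10 in 10% steps of herbicidal effect with 10 meaning complete death and 0 below 10%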; details: 1000 g effective component per hectare, day 14 after the treatment
Summary of the method: as §2

Indian millet [4] = experiment: Herbicidal activity by field soil treatment (Test example 2); format: in vivo; parameters: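 index 0 to 10 in 10% steps of herbicidal effect with 10 meaning complete death and 0 below 10%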; details: 1000 g effective component per hectare, day 21 after the treatment
Summary of the method: as §1

Echinochloa crus-galli [5] = experiment: as above; format: in vivo; parameters: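 index 0 to 10 in 10% steps of herbicidal effect with 10 meaning complete death and 0 below 10%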; details: 1000 g effective component per hectare, day 21 after the treatment
Summary of the method: as §1

A. retroflexus [6] = experiment: as above; format: in vivo; parameters: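 index 0 to 10 in 10% steps of herbicidal effect with 10 meaning complete death and 0 below 10%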; details: 1000 g effective component per hectare, day 21 after the treatment
Summary of the method: as §1

Echinochloa oryzicola = experiment: Herbicidal activity by paddy field soil treatment (Test Example 1); format: in vivo; parameters: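 index 0 to 10 in 10% steps of herbicidal effect with 10 meaning complete death and 0 below 10%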; details: 1000 g of effective component per hectare, evaluated on day 21 after the treatment, criteria of Table 72
Summary of the method: (§4)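 Seeds were sown in puddled paddy soil in pots flooded to 3 cm water depth; the next day a water-diluted wettable powder was applied to the water surface at 1000 g active ingredient/ha. Plants were grown in a greenhouse and herbicidal effect scored by graded criteria on day 21 after treatment.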

Scirpus juncoides Rocxb. = experiment: as above; format: in vivo; parameters: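 index 0 to 10 in 10% steps of herbicidal effect with 10 meaning complete death and 0 below 10%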; details: applied on water surface, 1000 g of effective component per hectare, day 21 after the treatment
Summary of the method: as §4

Monochoria vaginalis = experiment: as above; format: in vivo; parameters: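 index 0 to 10 in 10% steps of herbicidal effect with 10 meaning complete death and 0 below 10%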; details: 1000 g of effective component per hectare, evaluated on day 21 after the treatment, criteria of Table 72
Summary of the method: as §4

Row | melting point | Structure (SMILES) | herbicidal effect index, Setaria viridis (foxtail) | herbicidal effect index, Setaria viridis (Setaria viridis) | herbicidal effect index, Abutilon theophrasti (Indian millet [1]) | herbicidal effect index, Amaranthus retroflexus (A. retroflexus [2]) | herbicidal effect index, Echinochloa crus-galli (Echinochloa crus-galli [3]) | herbicidal effect index, Abutilon theophrasti (Indian millet [4]) | herbicidal effect index, Echinochloa crus-galli (Echinochloa crus-galli [5]) | herbicidal effect index, Amaranthus retroflexus (A. retroflexus [6]) | Herbicidal effects index number, Echinochloa oryzicola (Echinochloa oryzicola) | herbicidal effect index, S. juncoides Rocxb. (Scirpus juncoides Rocxb.) | Herbicidal effects index number, Monochoria vaginalis (Monochoria vaginalis)
1 |  | COc1cc(-n2c(=O)c(C(=O)C3=C(O)CCCC3=O)nn(C)c2=O)c(F)cc1Cl [I-297] | 9 | 9 | 8 | 8 | 9 | 9 | 10 | 10 | 10 | 10 | 10
2 |  | COc1ccc(-n2c(=O)c(C(=O)C3=C(O)CCCC3=O)nn(C)c2=O)c(OC)c1OC [I-298] | 7 | 8 | 9 | 10 | 10 | 10 | 7 | 10 | 10 | 10 | 10
3 |  | Cn1nc(C(=O)C2=C(O)CCCC2=O)c(=O)n(C2C=CCCC2)c1=O (stereo not drawn) [I-303] | 9 | 10 | 9 | 10 | 8 | 9 | 9 | 10 | 10 | 10 | 10
4 |  | Cn1nc(C(=O)C2=C(O)CCCC2=O)c(=O)n(N2CCCCC2)c1=O [I-304] | 9 | 10 | 9 | 10 | 10 | 10 | 10 | 10 | 10 | 10 | 10
5 | 195 to 198 °C | Cn1nc(C(=O)O)c(=O)n(-c2ccccc2)c1=O [V-50, 2-methyl-3,5-dioxo-4-phenyl-2,3,4,5-tetrahydro-1,2,4-triazine-6-carboxylic acid] |  |  |  |  |  |  |  |  |  |  | 
6 | 213 to 215 °C | Cn1nc(C(=O)O)c(=O)n(-c2ccccc2C#N)c1=O [V-72, 2-methyl-3,5-dioxo-4-(2-cyanophenyl)-2,3,4,5-tetrahydro-1,2,4-triazine-6-carboxylic acid] |  |  |  |  |  |  |  |  |  |  | 
7 |  | CC1CC(C)(C)C(=O)C(C(=O)c2nn(C)c(=O)n(-c3ccccc3)c2=O)=C1O (stereo not drawn) [VI-7] | 10 | 10 | 10 | 10 | 10 | 10 | 10 | 10 | 10 | 10 | 10
